Test results from patent US5164381A, “Pharmacologically active 1,5-diaryl-3-substituted pyrazoles and method for synthesizing the same” (Ortho Pharmaceutical Corporation, priority 1991, dated 1992).

What was measured:
[1] = system: total cells in synovial fluid of dog knee joint; experiment: Immune complex-induced synovitis in the dog knee joint: cellular infiltrate; assay type: in vivo, Mongrel dogs; settings: for Cellular Infiltrate Total Cells (× 10^6) / % I (inhibition) of total cells: 100 mg/kg p.o.
Protocol: (§1) The accuracy of the puncture was assured by the aspiration of clear, viscous synovial fluid (time 0 sample). The syringe was removed and immune complexes (see below) were injected into the synovial space. The synovial space was re-entered at various time intervals and synovial fluid was withdrawn. The volume of fluid was recorded and then added to 3.0 ml of 0.3% saline. A sample was removed and the number of cells present counted with the use of a hemocytometer and microscope to enumerate the total number of cells in the joint. The remaining sample was centrifuged at 1000×g for 10 minutes and the supernatant analyzed for prostaglandin E2 levels and leukotriene B4 levels.
(§2) To prepare the immune complex, two hundred milligrams of partially purified dog IgG was dissolved in 20 ml 0.9% sterile sodium chloride. The solution was clarified by centrifugation at 2230×G at 20° C. for 10 minutes. A 3 ml volume of the 10.0 mg/ml solution of dog IgG was mixed with 1 ml rabbit anti-dog IgG serum and incubated at room temperature for 20 minutes.
(§3) Four milliliters of saturated ammonium sulfate were added to the mixture to precipitate the complex and all free dog IgG and rabbit gamma globulin. The sample was then centrifuged (as above) and the pellet resuspended in 10 ml 0.9% sterile saline. One ml of this solution was injected into a knee joint.
(§4) Following the intra-articular administration of immune complexes synovial fluid samples were taken at 30 minutes, 1,2,4 and 24 hours, alternating knees for sampling (except at 24 hours when both knees were sampled).
(§5) The articular joint was entered and a zero hour synovial fluid sample was removed. 1 ml of immune complexes was injected into the synovial joint of both legs. […] Synovial fluid samples were taken at 30 minutes, 1, 2 and 4 hours. All samples were analyzed for total granulocyte count using a laser flow cytometer. Prostaglandin and leukotriene concentrations were determined with standard RIA techniques.

Prostaglandin E2 = experiment: Immune complex-induced synovitis in the dog knee joint: prostaglandin E2 levels; assay type: in vivo, Mongrel dogs; settings: for Prostaglandin E2 Levels / % I (inhibition) of prostaglandin E2 levels: 100 mg/kg p.o.; for Prostaglandin E2 Levels: radioimmunoassay
Protocol: as §1, §2, §3, §4, §5

Leukotriene B4 = experiment: Immune complex-induced synovitis in the dog knee joint: leukotriene B4 levels; assay type: in vivo, Mongrel dogs; settings: for % I (inhibition) of leukotriene B4 / Leukotriene B4: 100 mg/kg p.o.
Protocol: as §1, §2, §3, §4, §5

cyclooxygenase (CO) = settings: cited from earlier work
gastrointestinal tract = settings: suboptimal antiinflammatory doses; cited from earlier work

SMILES: COc1ccc2cc([C@H](C)C(=O)O)ccc2c1 [Naproxen, reference compound]
- cellular infiltrate (in words) ([1]; 100 mg/kg orally, dog): inhibited the cell infiltration
- Cellular Infiltrate Total Cells (× 10^6) ([1]; 0.5 HR): 0.32 ± 0.11 × 10^6
- Cellular Infiltrate Total Cells (× 10^6) ([1]; 1 HR): 0.02 ± 0.02 × 10^6
- % I (inhibition) of total cells ([1]; 2 HR): 36.6%
- Cellular Infiltrate Total Cells (× 10^6) ([1]; 2 HR): 2.69 ± 0.63 × 10^6
- % I (inhibition) of total cells ([1]; 4 HR): 44.2%
- Cellular Infiltrate Total Cells (× 10^6) ([1]; 4 HR): 27.6 ± 24 × 10^6
- total cell number / cellular infiltration (in words) ([1]; i.v. 25 mg/kg or orally, dog): inhibits
- levels of PGE2 in the synovial fluid (in words) (Prostaglandin E2; 100 mg/kg orally, dog): inhibited
- Prostaglandin E2 Levels (Prostaglandin E2; 0.5 Hr): 0.83 ± 0.24 ng/mL
- Prostaglandin E2 Levels (Prostaglandin E2; 1 Hr): 1.67 ± 0.73 ng/mL
- % I (inhibition) of prostaglandin E2 levels (Prostaglandin E2; 2 Hr): 62.0%
- Prostaglandin E2 Levels (Prostaglandin E2; 2 Hr): 1.88 ± 0.86 ng/mL
- % I (inhibition) of prostaglandin E2 levels (Prostaglandin E2; 4 Hr): 44.9%
- Prostaglandin E2 Levels (Prostaglandin E2; 4 Hr): 2.2 ± 0.97 ng/mL
- PGE2 levels (in words) (Prostaglandin E2; i.v. 25 mg/kg or orally, dog): inhibits PGE 2 levels
- levels of LTB4 in the synovial fluid (in words) (Leukotriene B4; 100 mg/kg orally, dog): increased the LTB4 levels
- % I (inhibition) of leukotriene B4 (Leukotriene B4; 0.5 Hr): 10.5%
- Leukotriene B4 (Leukotriene B4; 0.5 Hr): 1.11 ± 0.36 ng/ml Synovial Fluid
- % I (inhibition) of leukotriene B4 (Leukotriene B4; 1 Hr): -26.7%
- Leukotriene B4 (Leukotriene B4; 1 Hr): 3.27 ± 1.53 ng/ml Synovial Fluid
- % I (inhibition) of leukotriene B4 (Leukotriene B4; 2 Hr): -47.4%
- Leukotriene B4 (Leukotriene B4; 2 Hr): 5.94 ± 1.33 ng/ml Synovial Fluid
- % I (inhibition) of leukotriene B4 (Leukotriene B4; 4 Hr): -140%
- Leukotriene B4 (Leukotriene B4; 4 Hr): 3.36 ± 1.28 ng/ml Synovial Fluid
- LTB4 levels (in words) (Leukotriene B4; i.v. 25 mg/kg or orally, dog): does not decrease
- inhibition of cyclooxygenase enzyme by NSAIDs (in words) (cyclooxygenase (CO)): only inhibit the cyclooxygenase enzyme
- ulcers in rats (in words) (gastrointestinal tract): significant ulcers
